One assay concerns SW480 cells. Kind of assay: Cell growth assay (CellTiter-Glo 2.0), SW480 MSS cell line. To be noted: read-out: Cell Growth Inhibition GI50 SW480; SW480 (MSS), 5-day incubation. In general terms: In ATP-based viability assays light output follows the ATP content of the culture.
The subject of a further assay is HCT 116 cells. Kind of assay: Cell growth assay (CellTiter-Glo 2.0), HCT 116 MSI-H cell line. The note with it: Homo sapiens, HCT-116, 120 h, read-out: Cell Growth Inhibition GI50 HCT-116.
The next assay has as its target T1, WRN C727 (Homo sapiens, UniProt Q14191).
T1 construct: endogenous in cells; host or cells: OCI-AML2
The assay is described as follows: Target engagement, in vitro (lysate), OCI-AML2. The assay is classed as binding. The note with it: read-out: OCI-AML2 WRN C727 TE50 in vitro (lysate). As for the experimental part:
Cells or cell lysates were treated with a dose response of compound followed by probe treatment, which labels solvent exposed cysteines. Proteins were enzymatically digested with trypsin and probe-labelled peptides were enriched with streptavidin. Isolated peptides were then separated using reversed-phase liquid chromatography on a C18 column (Dionex Ultimated 3000 nano-LC, Thermo). Peptides were analyzed by parallel reaction monitoring mass spectrometry (Exploris 120, Thermo).
Target engagement (%) is calculated relative to DMSO treated control samples.

Assay [1] addresses hWRN(519-1227)_C-H3CV-GFP-10His (Homo sapiens, UniProt Q14191). Kind of assay: Helicase Assay for WRN Inhibition (ATP-dependent, fluorescence based).
Where [2] appears, read: WRN Helicase IC50, 30 min preincubation with ATP, 30 min reaction.

pIC50: −log10 of the molar value. Values joined by “and” are separate entries in the source; they are usually repeats but may differ in a detail not shown here. Equal entries are not always repeated. Where two headings read alike, the source gives them in different places. Some results are limits rather than exact numbers.

T1 sequence (Q14191 whole entry): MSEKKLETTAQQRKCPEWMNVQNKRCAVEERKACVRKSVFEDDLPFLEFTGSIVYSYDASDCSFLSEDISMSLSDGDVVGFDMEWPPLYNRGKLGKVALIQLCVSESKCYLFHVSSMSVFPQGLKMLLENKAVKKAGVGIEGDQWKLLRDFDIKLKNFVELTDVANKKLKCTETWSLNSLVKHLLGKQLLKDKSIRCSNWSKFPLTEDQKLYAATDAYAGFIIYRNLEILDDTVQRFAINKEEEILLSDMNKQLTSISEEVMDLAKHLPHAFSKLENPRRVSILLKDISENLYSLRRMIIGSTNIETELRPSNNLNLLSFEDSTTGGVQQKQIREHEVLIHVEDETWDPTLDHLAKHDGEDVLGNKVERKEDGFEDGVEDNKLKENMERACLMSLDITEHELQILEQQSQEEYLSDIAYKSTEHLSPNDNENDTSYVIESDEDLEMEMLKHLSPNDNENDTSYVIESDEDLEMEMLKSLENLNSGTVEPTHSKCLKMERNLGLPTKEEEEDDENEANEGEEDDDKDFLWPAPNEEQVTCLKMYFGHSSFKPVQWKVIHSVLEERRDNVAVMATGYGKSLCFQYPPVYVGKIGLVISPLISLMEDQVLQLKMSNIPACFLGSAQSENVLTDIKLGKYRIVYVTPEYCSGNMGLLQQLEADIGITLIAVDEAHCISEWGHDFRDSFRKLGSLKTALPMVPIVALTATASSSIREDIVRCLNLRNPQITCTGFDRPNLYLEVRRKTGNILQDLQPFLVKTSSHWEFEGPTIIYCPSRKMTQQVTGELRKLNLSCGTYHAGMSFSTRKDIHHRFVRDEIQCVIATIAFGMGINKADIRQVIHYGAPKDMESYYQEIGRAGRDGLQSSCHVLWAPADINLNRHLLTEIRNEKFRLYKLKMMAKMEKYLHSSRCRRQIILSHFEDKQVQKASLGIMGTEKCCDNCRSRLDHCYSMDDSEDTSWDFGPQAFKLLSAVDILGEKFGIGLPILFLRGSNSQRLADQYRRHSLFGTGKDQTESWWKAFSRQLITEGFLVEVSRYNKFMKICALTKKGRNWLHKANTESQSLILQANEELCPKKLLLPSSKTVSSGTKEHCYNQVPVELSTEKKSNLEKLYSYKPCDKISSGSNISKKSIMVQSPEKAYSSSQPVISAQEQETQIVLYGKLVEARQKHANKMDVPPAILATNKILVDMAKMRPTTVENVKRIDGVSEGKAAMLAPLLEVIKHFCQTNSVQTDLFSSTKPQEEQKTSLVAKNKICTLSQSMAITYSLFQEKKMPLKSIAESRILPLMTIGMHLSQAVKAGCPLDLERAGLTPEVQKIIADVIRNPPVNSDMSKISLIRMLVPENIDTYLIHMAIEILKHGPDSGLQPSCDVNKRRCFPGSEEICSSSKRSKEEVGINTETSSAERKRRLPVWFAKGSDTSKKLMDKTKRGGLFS
hWRN(519-1227)_C-H3CV-GFP-10His, sequence (Q14191 519-1227): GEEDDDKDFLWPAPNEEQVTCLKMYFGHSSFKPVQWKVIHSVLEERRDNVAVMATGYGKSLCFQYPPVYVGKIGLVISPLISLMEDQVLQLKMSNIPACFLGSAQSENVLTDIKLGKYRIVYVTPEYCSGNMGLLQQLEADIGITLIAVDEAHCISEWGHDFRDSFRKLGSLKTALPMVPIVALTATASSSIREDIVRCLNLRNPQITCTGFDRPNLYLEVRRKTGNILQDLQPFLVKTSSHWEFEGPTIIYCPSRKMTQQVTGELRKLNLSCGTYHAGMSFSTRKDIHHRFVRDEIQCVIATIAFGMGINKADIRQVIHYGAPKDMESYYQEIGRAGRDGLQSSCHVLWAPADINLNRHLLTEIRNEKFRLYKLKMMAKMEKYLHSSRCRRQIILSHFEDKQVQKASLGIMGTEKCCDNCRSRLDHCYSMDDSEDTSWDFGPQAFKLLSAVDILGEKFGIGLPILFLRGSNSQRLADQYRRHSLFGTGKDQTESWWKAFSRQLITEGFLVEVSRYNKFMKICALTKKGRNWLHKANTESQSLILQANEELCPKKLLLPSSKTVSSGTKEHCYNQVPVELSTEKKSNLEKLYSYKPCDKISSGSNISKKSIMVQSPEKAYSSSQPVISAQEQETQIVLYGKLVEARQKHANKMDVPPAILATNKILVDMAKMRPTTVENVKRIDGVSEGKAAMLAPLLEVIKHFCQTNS
Procedure for SW480 cells: The effects of compound on cellular viability were determined using the CellTiter-Glo® 2.0 Luminescent Cell Viability Assay (Promega, Madison, WI).
SW480 cells were seeded at 1,000 cells per well in Eagle's Minimum Essential Medium (EMEM) with 10% FBS. Both cell lines were seeded in a volume of 50 μL medium per well. […] The concentration range was adjusted as needed for compounds of different potencies. The cells treated with compounds were incubated for 5 days at 37° C. in 5% CO2. […] The plate was then read on a Clariostar plate reader (BMG Labtech, Cary, NC) in luminescence mode. The previously measured baseline cell viability was subtracted from the luminescence value of each well, and cell viability (% of DMSO) was plotted as a function of log compound concentration. The EC50 was then calculated for each compound using Dotmatics Software (San Diego, CA).

One may read the GI50 as the concentration at which growth is held to half of that of the control. On to `C=C(C#N)[C@H](C)NC(=O)c1cnc(C(F)(F)C2CC2)nc1Oc1ccccc1` [275/276, (S)—N-(3-cyanobut-3-en-2-yl)-2-(cyclopropyldifluoromethyl)-4-phenoxypyrimidine-5-carboxamide/(R)—N-(3-cyanobut-3-en-2-yl)-2-(cyclopropyldifluoromethyl)-4-phenoxypyrimidine-5-carboxamide], for which, in the assay with SW480 cells, the concentration for 50% growth inhibition (GI50) is 10 µM and 9.4 µM.
Turning to `CS(=O)(=O)/C=C/CNC(=O)c1cnc(C2CCCC2)nc1Oc1ccccc1` [Example 1, (E)-2-cyclopentyl-N-(3-(methylsulfonyl)allyl)-4-phenoxypyrimidine-5-carboxamide], the GI50 with HCT 116 cells was 2.1 µM.
`CC(C)(C)c1ncc(C(=O)NC/C=C/S(C)(=O)=O)c(O[C@H]2C[C@@H]3C[C@@H]3C2)n1` [Example 145, 4-(((1R,3s,5S)-bicyclo[3.1.0]hexan-3-yl)oxy)-2-(tert-butyl)-N—((E)-3-(methylsulfonyl)allyl)pyrimidine-5-carboxamide]: the IC50 on WRN C727 was over 100 µM. In addition, the pIC50 in assay [1] (read-out: WRN Helicase IC50, 30 min preincubation with ATP, 30 min reaction) is 4.23.
With `C[C@@H](/C=C/S(C)(=O)=O)NC(=O)c1cnc(C2CC2)nc1OCC1CC1` [Example 150, (S,E)-2-cyclopropyl-4-(cyclopropylmethoxy)-N-(4-(methylsulfonyl)but-3-en-2-yl)pyrimidine-5-carboxamide], the pIC50 at WRN C727 is under 4.00; in assay [1] (setting [2]), 4.37.
In the same order, the values of `C[C@@H](/C=C/S(C)(=O)=O)NC(=O)c1cnc(C2CC2)nc1O[C@H]1C[C@H](Cl)C1` [Example 151, 4-((1r,3S)-3-chlorocyclobutoxy)-2-cyclopropyl-N—((S,E)-4-(methylsulfonyl)but-3-en-2-yl)pyrimidine-5-carboxamide] are under 4.00 and 4.23.
Taken in the same sequence, the figures for `C[C@@H](/C=C/S(C)(=O)=O)NC(=O)c1cnc(C(C)(C)C)nc1OC1CCC(F)(F)CC1` [Example 155, (S,E)-2-(tert-butyl)-4-((4,4-difluorocyclohexyl)oxy)-N-(4-(methylsulfonyl)but-3-en-2-yl)pyrimidine-5-carboxamide] were 4.70 and 4.82.
In the same order, the values of `C[C@@H](/C=C/S(C)(=O)=O)NC(=O)c1cnc(C(C)(C)C)nc1OC1CC(F)(F)C1` [Example 156, (S,E)-2-(tert-butyl)-4-(3,3-difluorocyclobutoxy)-N-(4-(methylsulfonyl)but-3-en-2-yl)pyrimidine-5-carboxamide] are 4.40 and 4.82.
As for `C[C@@H](/C=C/S(C)(=O)=O)NC(=O)c1cnc(C(C)(C)C)nc1OC1(C#N)CCCC1` [Example 161, (S,E)-2-(tert-butyl)-4-((1-cyanocyclopentyl)oxy)-N-(4-(methylsulfonyl)but-3-en-2-yl)pyrimidine-5-carboxamide], the pIC50 at WRN C727 was under 4.00; in assay [1] (setting [2]) it was 3.81.
`Cc1nc(C2CCCC2)nc(Oc2ccccc2)c1C(=O)N[C@@H](C)/C=C/S(C)(=O)=O` [Example 162, (S,E)-2-cyclopentyl-4-methyl-N-(4-(methylsulfonyl)but-3-en-2-yl)-6-phenoxypyrimidine-5-carboxamide]: the figures for the pIC50 (at WRN C727; in assay [1] (setting [2])) were under 4.00 and 3.89, respectively.
Turning to `C[C@@H](/C=C/S(C)(=O)=O)NC(=O)c1cnc(N2CC3(CCC3)C2)nc1Oc1ccccc1` [Example 170, (S,E)-N-(4-(methylsulfonyl)but-3-en-2-yl)-4-phenoxy-2-(2-azaspiro[3.3]heptan-2-yl)pyrimidine-5-carboxamide], the pIC50 on WRN C727 is under 4.00; in assay [1] (setting [2]), 3.86.
Consider `C[C@@H](/C=C/S(C)(=O)=O)NC(=O)c1cnc(N2CCC(F)(F)C2)nc1Oc1ccccc1` [Example 173, (S,E)-2-(3,3-difluoropyrrolidin-1-yl)-N-(4-(methylsulfonyl)but-3-en-2-yl)-4-phenoxypyrimidine-5-carboxamide], for which the pIC50 at WRN C727 is under 4.00; in assay [1] (setting [2]), 4.32.
Regarding `CS(=O)(=O)/C=C/[C@@H](NC(=O)c1cnc(N2CC(F)(F)C2)nc1Oc1ccccc1)C1CC1` [Example 183, (S,E)-N-(1-cyclopropyl-3-(methylsulfonyl)allyl)-2-(3,3-difluoroazetidin-1-yl)-4-phenoxypyrimidine-5-carboxamide], the pIC50 at WRN C727 is 4.19; in assay [1] (setting [2]), 5.54.
Turning to `CN(C/C=C/S(C)(=O)=O)C(=O)c1cnc(C2CCCC2)nc1Oc1ccccc1` [Example 187, (E)-2-cyclopentyl-N-methyl-N-(3-(methylsulfonyl)allyl)-4-phenoxypyrimidine-5-carboxamide], the pIC50 on WRN C727 was under 4.00; in assay [1] (setting [2]), 4.28.
In the same order, the values of `C[C@@H](/C=C/S(C)(=O)=O)NC(=O)c1cnc(C2CC2)c(F)c1Oc1ccccc1` [Example 205, (S,E)-6-cyclopropyl-5-fluoro-N-(4-(methylsulfonyl)but-3-en-2-yl)-4-phenoxynicotinamide] are under 4.00 and 4.70.
In the same order, the values of `C[C@@H](/C=C/S(C)(=O)=O)NC(=O)c1ncc(C2=CCCC2)nc1Oc1ccccc1` [Example 207, (S,E)-5-(cyclopent-1-en-1-yl)-N-(4-(methylsulfonyl)but-3-en-2-yl)-3-phenoxypyrazine-2-carboxamide] are under 4.00 and 4.28.
With `CS(=O)(=O)/C=C/CNC(=O)c1cnc(-c2ccn[nH]2)nc1Oc1ccccc1` [Example 209, (E)-N-(3-(methylsulfonyl)allyl)-4-phenoxy-2-(1H-pyrazol-5-yl)pyrimidine-5-carboxamide], the pIC50 is under 4.00 on WRN C727 and 4.74 in assay [1] (setting [2]).
In the same order, the values of `C[C@@H](/C=C/S(C)(=O)=O)NC(=O)c1cnc(C2=CCCOC2)nc1Oc1ccccc1` [Example 211, (S,E)-2-(5,6-dihydro-2H-pyran-3-yl)-N-(4-(methylsulfonyl)but-3-en-2-yl)-4-phenoxypyrimidine-5-carboxamide] are under 4.00 and 4.29.
For the compound `C[C@@H](/C=C/S(C)(=O)=O)NC(=O)c1cnc(C2CCCOC2)nc1Oc1ccccc1` (stereo partly drawn) [Example 212, N—((S,E)-4-(methylsulfonyl)but-3-en-2-yl)-4-phenoxy-2-(tetrahydro-2H-pyran-3-yl)pyrimidine-5-carboxamide], the figures for the pIC50 (at WRN C727; in assay [1] (setting [2])) were under 4.00 and 4.51, respectively.
Taken in the same sequence, the figures for `CS(=O)(=O)/C=C/[C@@H](NC(=O)c1cc2c(nc1Oc1ccccc1)C(F)(F)CC2)C1CC1` [Example 237, (S,E)-N-(1-cyclopropyl-3-(methylsulfonyl)allyl)-7,7-difluoro-2-phenoxy-6,7-dihydro-5H-cyclopenta[b]pyridine-3-carboxamide] were 6.30 and 4.77.
In the same order, the values of `C[C@@H](/C=C/S(C)(=O)=O)NC(=O)c1cnc(C2CCOCC2)nc1Oc1ccccc1` [Example 238, (S,E)-N-(4-(methylsulfonyl)but-3-en-2-yl)-4-phenoxy-2-(tetrahydro-2H-pyran-4-yl)pyrimidine-5-carboxamide] are under 4.00 and 4.28.
In the same order, the values of `C[C@@H](/C=C/S(C)(=O)=O)NC(=O)c1cnc(C2CCCC2)nc1C1CCCCC1` [Example 239, (S,E)-4-cyclohexyl-2-cyclopentyl-N-(4-(methylsulfonyl)but-3-en-2-yl)pyrimidine-5-carboxamide] are under 4.00 and 3.83.
Regarding `C[C@@H](/C=C/S(C)(=O)=O)NC(=O)c1cnc(CC2CCCCC2)nc1Oc1ccccc1` [Example 240, (S,E)-2-(cyclohexylmethyl)-N-(4-(methylsulfonyl)but-3-en-2-yl)-4-phenoxypyrimidine-5-carboxamide], the pIC50 on WRN C727 was under 4.00; in assay [1] (setting [2]), 4.17.
Turning to `C[C@@H](/C=C/S(C)(=O)=O)NC(=O)c1cc2c(nc1Oc1ccccc1)CCC2` [Example 243, (S,E)-N-(4-(methylsulfonyl)but-3-en-2-yl)-2-phenoxy-6,7-dihydro-5H-cyclopenta[b]pyridine-3-carboxamide], the pIC50 on WRN C727 was under 4.00; in assay [1] (setting [2]), 4.37.
With `COc1ncc(C(=O)N[C@H](/C=C/S(C)(=O)=O)C2CC2)c(Oc2ccccc2)n1` [Example 244, (S,E)-N-(1-cyclopropyl-3-(methylsulfonyl)allyl)-2-methoxy-4-phenoxypyrimidine-5-carboxamide], the pIC50 was 6.31 at WRN C727 and 4.70 in assay [1] (setting [2]).
Taken in the same sequence, the figures for `CC(=O)Nc1nc(C2CCCC2)nc(Oc2ccccc2)c1C(=O)N[C@@H](C)/C=C/S(C)(=O)=O` [Example 256, (S,E)-4-acetamido-2-cyclopentyl-N-(4-(methylsulfonyl)but-3-en-2-yl)-6-phenoxypyrimidine-5-carboxamide] were under 4.00 and 4.38.
Regarding `C[C@@H](/C=C/S(C)(=O)=O)NC(=O)c1cnc(C2CC2)c2c1OC1(CCCC1)C2` [Example 259, (S,E)-4′-cyclopropyl-N-(4-(methylsulfonyl)but-3-en-2-yl)-3′H-spiro[cyclopentane-1,2′-furo[3,2-c]pyridine]-7′-carboxamide], the pIC50 at WRN C727 was 6.92; in assay [1], 5.15.
`CC(C)Oc1cc(C2CCCC2)ccc1C(=O)NC/C=C/S(C)(=O)=O` [Example 281, (E)-4-cyclopentyl-2-isopropoxy-N-(3-(methylsulfonyl)allyl)benzamide]: the pIC50 at WRN C727 is 4.38; in assay [1] (setting [2]) it was 4.29.
